The results in this text go back to patent US11254686B1 (Corvus Pharmaceuticals, Inc., priority 2017, dated 2022).

The target in one test is adenosine A2B receptor (Homo sapiens (Human), UniProt P29275). As to the kind of experiment: Adenosine receptor activity assay (Table 1), A2B activity. It is filed as biochemical. The note with it: for Ratio: A2A activity to A2B activity (A2A/A2B); for IC50: read-out: Ave A2B cAMP IC50.
In the next test the target is adenosine A2A receptor (Homo sapiens (Human), UniProt P29274). As to the kind of experiment: Adenosine receptor activity assay (Table 1), A2A activity. The note with it: read-out: Ave A2A cAMP IC50. In kind it is biochemical.
Chain of adenosine A2A receptor (P29274 whole entry): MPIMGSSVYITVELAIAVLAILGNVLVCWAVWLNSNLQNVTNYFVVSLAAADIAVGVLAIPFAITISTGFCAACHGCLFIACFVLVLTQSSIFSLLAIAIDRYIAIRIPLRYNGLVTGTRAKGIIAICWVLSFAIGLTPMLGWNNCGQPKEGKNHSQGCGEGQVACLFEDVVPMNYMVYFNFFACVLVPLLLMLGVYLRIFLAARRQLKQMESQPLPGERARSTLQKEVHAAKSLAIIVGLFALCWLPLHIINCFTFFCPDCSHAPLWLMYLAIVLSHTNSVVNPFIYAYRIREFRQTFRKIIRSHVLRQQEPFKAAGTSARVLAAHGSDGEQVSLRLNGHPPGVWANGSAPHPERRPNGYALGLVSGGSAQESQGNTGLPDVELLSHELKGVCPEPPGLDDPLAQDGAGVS
For the next test, the target named is adenosine A1 receptor (Homo sapiens (Human), UniProt P30542). As to the kind of experiment: Adenosine receptor activity assay (Table 1), A1 cAMP. In kind it is cell-based.
Chain of adenosine A1 receptor (P30542 whole entry): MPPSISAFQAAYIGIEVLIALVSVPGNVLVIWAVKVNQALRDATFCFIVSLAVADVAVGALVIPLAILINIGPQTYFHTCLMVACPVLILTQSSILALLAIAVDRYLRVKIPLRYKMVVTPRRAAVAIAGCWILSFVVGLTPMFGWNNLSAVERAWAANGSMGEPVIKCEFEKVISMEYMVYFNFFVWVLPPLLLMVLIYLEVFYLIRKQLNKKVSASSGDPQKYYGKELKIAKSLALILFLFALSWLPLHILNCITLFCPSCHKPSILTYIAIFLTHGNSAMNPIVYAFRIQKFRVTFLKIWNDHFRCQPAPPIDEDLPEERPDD
For the next test, the target named is adenosine A3 receptor (Homo sapiens (Human), UniProt P0DMS8). Nature of the test: Adenosine receptor activity assay (Table 1), A3 cAMP. In kind it is cell-based.
Chain of adenosine A3 receptor (P0DMS8 whole entry): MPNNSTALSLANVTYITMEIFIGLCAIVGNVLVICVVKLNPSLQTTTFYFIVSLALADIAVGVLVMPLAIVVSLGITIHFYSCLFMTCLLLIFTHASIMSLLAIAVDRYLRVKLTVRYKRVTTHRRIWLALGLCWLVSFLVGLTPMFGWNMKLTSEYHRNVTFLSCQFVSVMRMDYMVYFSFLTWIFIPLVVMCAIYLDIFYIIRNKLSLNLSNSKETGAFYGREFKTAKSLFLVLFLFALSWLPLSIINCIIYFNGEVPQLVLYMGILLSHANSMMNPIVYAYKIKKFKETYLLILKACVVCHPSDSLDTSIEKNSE

Chain of adenosine A2B receptor (P29275 whole entry): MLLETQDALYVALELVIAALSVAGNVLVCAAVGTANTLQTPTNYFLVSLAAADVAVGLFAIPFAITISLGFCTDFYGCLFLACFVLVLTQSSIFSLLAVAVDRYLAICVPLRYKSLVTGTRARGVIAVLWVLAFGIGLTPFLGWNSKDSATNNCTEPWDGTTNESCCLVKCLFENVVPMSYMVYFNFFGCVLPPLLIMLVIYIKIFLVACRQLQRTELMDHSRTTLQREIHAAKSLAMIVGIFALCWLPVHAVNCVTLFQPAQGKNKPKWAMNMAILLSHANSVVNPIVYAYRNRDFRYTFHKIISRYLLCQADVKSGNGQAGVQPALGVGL

On to `C[C@H](Nc1nc(C(=O)N2CC[C@@H](CO)C2)c2sccc2n1)c1cncc(F)c1` [Example Z295, (2-(((S)-1-(5-Fluoropyridin-3-yl)ethyl)amino)thieno[3,2-d]pyrimidin-4-yl)((R)-3-(hydroxymethyl)pyrrolidin-1-yl)methanone], for which the Ratio on adenosine A2B receptor amounted to 68.33. In addition, the IC50 on adenosine A2B receptor was under 10 nM; at adenosine A2A receptor, 100 to 500 nM; against adenosine A1 receptor it was over 500 nM; against adenosine A3 receptor, over 500 nM.
`CO[C@@H]1CCN(C(=O)c2nc(N[C@@H](C)c3cncc(Cl)c3)nc3ccsc23)C1` [Example Z253, (2-(((S)-1-(5-Chloropyridin-3-yl)ethyl)amino)thieno[3,2-d]pyrimidin-4-yl)((R)-3-methoxypyrrolidin-1-yl)methanone]: the Ratio on adenosine A2B receptor was found to be 10.26. Further, the half-maximal inhibitory concentration (IC50) on adenosine A2B receptor is 10 to 50 nM; on adenosine A2A receptor it was 100 to 500 nM; at adenosine A1 receptor it was over 500 nM; against adenosine A3 receptor it was over 500 nM.
As for `C[C@H](Nc1nc(C(=O)NC[C@@H](C)O)c2sc(C(F)(F)F)cc2n1)c1cncc(F)c1` [Example Z393, 2-(((S)-1-(5-Fluoropyridin-3-yl)ethyl)amino)-N—((R)-2-hydroxypropyl)-6-(trifluoromethyl)thieno[3,2-d]pyrimidine-4-carboxamide], at adenosine A2B receptor, the Ratio is 399.70. For the same compound, the IC50 at adenosine A2B receptor is under 10 nM; on adenosine A2A receptor it was over 500 nM; against adenosine A1 receptor, 50 to 100 nM; against adenosine A3 receptor it was 50 to 100 nM.
Take `C[C@H](O)CNC(=O)c1nc(N[C@@H](C)c2cccnc2)nc2cc(C(F)(F)F)sc12` [Example Z347, N—((S)-2-Hydroxypropyl)-2-(((S)-1-(pyridin-3-yl)ethyl)amino)-6-(trifluoromethyl)thieno[3,2-d]pyrimidine-4-carboxamide]: the Ratio on adenosine A2B receptor came to 98.22. The IC50 at adenosine A2B receptor was 10 to 50 nM; at adenosine A2A receptor, over 500 nM; on adenosine A1 receptor, over 500 nM; against adenosine A3 receptor it was 50 to 100 nM.
In the case of `C[C@H](Nc1nc(C(=O)NCC(C)(C)O)c2sccc2n1)c1cncc(F)c1` [Example Z238, (S)-2-((1-(5-Fluoropyridin-3-yl)ethyl)amino)-N-(2-hydroxy-2-methylpropyl)thieno[3,2-d]pyrimidine-4-carboxamide], the Ratio at adenosine A2B receptor is on record as 22.98. The IC50 is under 10 nM at adenosine A2B receptor, 100 to 500 nM on adenosine A2A receptor, over 500 nM at adenosine A1 receptor and over 500 nM at adenosine A3 receptor.
As to `C[C@H](Nc1nc(C(=O)N2CC[C@@H](O)C2)c2sc(N)cc2n1)c1cncc(F)c1` [Example Z242, (6-Amino-2-(((S)-1-(5-fluoropyridin-3-yl)ethyl)amino)thieno[3,2-d]pyrimidin-4-yl)((R)-3-hydroxypyrrolidin-1-yl)methanone], on adenosine A2B receptor, the Ratio is 45.21. The IC50 at adenosine A2B receptor was under 10 nM; on adenosine A2A receptor it was 100 to 500 nM; against adenosine A1 receptor it was over 500 nM; against adenosine A3 receptor, over 500 nM.
Turning to `C[C@H](Nc1nc(C(=O)N2CC[C@H](CO)C2)c2sccc2n1)c1cccnc1` [Example Z259, ((S)-3-(Hydroxymethyl)pyrrolidin-1-yl)(2-(((S)-1-(pyridin-3-yl)ethyl)amino)thieno[3,2-d]pyrimidin-4-yl)methanone], the Ratio at adenosine A2B receptor was found to be 31.95. Besides, the IC50 at adenosine A2B receptor was 10 to 50 nM; at adenosine A2A receptor it was 100 to 500 nM; at adenosine A1 receptor, over 500 nM; against adenosine A3 receptor, over 500 nM.
For the compound `COC1CN(C(=O)c2nc(N[C@@H](C)c3cncc(F)c3)nc3cc(C)sc23)C1` [Example Z268, (S)-(2-((1-(5-Fluoropyridin-3-yl)ethyl)amino)-6-methylthieno[3,2-d]pyrimidin-4-yl)(3-methoxyazetidin-1-yl)methanone], on adenosine A2B receptor, the Ratio turned out to be 57.63. Also, the concentration for half-maximal inhibition (IC50) was under 10 nM on adenosine A2B receptor, 50 to 100 nM on adenosine A2A receptor, 50 to 100 nM on adenosine A1 receptor and 50 to 100 nM against adenosine A3 receptor.
Consider `C[C@H](Nc1nc(C(=O)N2CC[C@@H](F)C2)c2sccc2n1)c1cncc(F)c1` [Example Z234, (2-(((S)-1-(5-Fluoropyridin-3-yl)ethyl)amino)thieno[3,2-d]pyrimidin-4-yl)((R)-3-fluoropyrrolidin-1-yl)methanone], for which, on adenosine A2B receptor, the Ratio worked out at 58.04. For the same compound, the IC50 at adenosine A2B receptor was under 10 nM; on adenosine A2A receptor, 100 to 500 nM; on adenosine A1 receptor it was over 500 nM; against adenosine A3 receptor, over 500 nM.
Take `C[C@H](Nc1nc(C(=O)NCCO)c2sccc2n1)c1cncc(Cl)c1` [Example Z291, (S)-2-((1-(5-Chloropyridin-3-yl)ethyl)amino)-N-(2-hydroxyethyl)thieno[3,2-d]pyrimidine-4-carboxamide]: the Ratio on adenosine A2B receptor is 50.12. Moreover, the IC50 on adenosine A2B receptor was 10 to 50 nM; on adenosine A2A receptor it was over 500 nM; against adenosine A1 receptor it was 50 to 100 nM; on adenosine A3 receptor it was over 500 nM.
With `C[C@H](Nc1nc(C(=O)NCC(F)(F)F)c2sccc2n1)c1cncc(F)c1` [Example Z263, (S)-2-((1-(5-Fluoropyridin-3-yl)ethyl)amino)-N-(2,2,2-trifluoroethyl)thieno[3,2-d]pyrimidine-4-carboxamide], the Ratio on adenosine A2B receptor was 9.48. The 50% inhibitory concentration (IC50) at adenosine A2B receptor is 10 to 50 nM; at adenosine A2A receptor it was 100 to 500 nM; against adenosine A1 receptor, over 500 nM; against adenosine A3 receptor it was over 500 nM.
Regarding `Cc1cc2nc(N[C@@H](C)c3cncc(F)c3)nc(C(=O)N3CCC3)c2s1` [Example Z276, (S)-Azetidin-1-yl(2-((1-(5-fluoropyridin-3-yl)ethyl)amino)-6-methylthieno[3,2-d]pyrimidin-4-yl)methanone], the Ratio on adenosine A2B receptor was 92.47. Also, the half-maximal inhibitory concentration (IC50) on adenosine A2B receptor is under 10 nM; at adenosine A2A receptor, 50 to 100 nM; against adenosine A1 receptor it was 50 to 100 nM; against adenosine A3 receptor, 50 to 100 nM.
Regarding `Cc1cc2nc(N[C@@H](C)c3ccccn3)nc(C(=O)N3CCCC3)c2s1` [Example Z244, (S)-(6-Methyl-2-((1-(pyridin-2-yl)ethyl)amino)thieno[3,2-d]pyrimidin-4-yl)(pyrrolidin-1-yl)methanone], the Ratio at adenosine A2B receptor was 18.24. Also, the IC50 on adenosine A2B receptor is under 10 nM; on adenosine A2A receptor it was 10 to 50 nM; at adenosine A1 receptor, 50 to 100 nM; against adenosine A3 receptor, 50 to 100 nM.
On to `COC[C@@H](Nc1nc(C(=O)N2CCC2)c2sccc2n1)c1cccnc1` [Example Z341, (S)-Azetidin-1-yl(2-((2-methoxy-1-(pyridin-3-yl)ethyl)amino)thieno[3,2-d]pyrimidin-4-yl)methanone], for which, at adenosine A2B receptor, the Ratio is listed as 30.12. Moreover, the IC50 on adenosine A2B receptor is under 10 nM; at adenosine A2A receptor it was 100 to 500 nM; against adenosine A1 receptor, over 500 nM; at adenosine A3 receptor, over 500 nM.
With `C[C@H](Nc1nc(C(=O)N2CCC2)c2sc(N)cc2n1)c1cncc(F)c1` [Example Z241, (S)-(6-Amino-2-((1-(5-fluoropyridin-3-yl)ethyl)amino)thieno[3,2-d]pyrimidin-4-yl)(azetidin-1-yl)methanone], the Ratio on adenosine A2B receptor came out at 78.77. In addition, the IC50 is under 10 nM at adenosine A2B receptor, 50 to 100 nM at adenosine A2A receptor, over 500 nM against adenosine A1 receptor and over 500 nM on adenosine A3 receptor.
Regarding `Cc1cc2nc(N[C@@H](C)c3ccccn3)nc(C(=O)N3CC(O)C3)c2s1` [Example Z285, (S)-(3-Hydroxyazetidin-1-yl)(6-methyl-2-((1-(pyridin-2-yl)ethyl)amino)thieno[3,2-d]pyrimidin-4-yl)methanone], the Ratio at adenosine A2B receptor is listed as 51.08. Moreover, the half-maximal inhibitory concentration (IC50) on adenosine A2B receptor was under 10 nM; on adenosine A2A receptor it was 100 to 500 nM; against adenosine A1 receptor, 50 to 100 nM; at adenosine A3 receptor, 50 to 100 nM.
Turning to `CNc1cc2nc(N[C@@H](C)c3cccnc3)nc(C(=O)N3CC(O)C3)c2s1` [Example Z240, (S)-(3-Hydroxyazetidin-1-yl)(6-(methylamino)-2-((1-(pyridin-3-yl)ethyl)amino)thieno[3,2-d]pyrimidin-4-yl)methanone], the Ratio at adenosine A2B receptor was 23.69. The IC50 was 10 to 50 nM at adenosine A2B receptor, over 500 nM at adenosine A2A receptor, over 500 nM on adenosine A1 receptor and over 500 nM at adenosine A3 receptor.
With `CO[C@H]1CCN(C(=O)c2nc(N[C@@H](C)c3ccccn3)nc3cc(C)sc23)C1` [Example Z311, ((S)-3-Methoxypyrrolidin-1-yl)(6-methyl-2-(((S)-1-(pyridin-2-yl)ethyl)amino)thieno[3,2-d]pyrimidin-4-yl)methanone], the Ratio on adenosine A2B receptor was 3.82. Further, the concentration for half-maximal inhibition (IC50) is 10 to 50 nM at adenosine A2B receptor, 50 to 100 nM at adenosine A2A receptor, over 500 nM against adenosine A1 receptor and 50 to 100 nM against adenosine A3 receptor.
On to `Cc1cc2nc(N[C@@H](C)c3ccccn3)nc(C(=O)NC[C@H](C)O)c2s1` [Example Z287, N—((S)-2-Hydroxypropyl)-6-methyl-2-(((S)-1-(pyridin-2-yl)ethyl)amino)thieno[3,2-d]pyrimidine-4-carboxamide], for which the Ratio at adenosine A2B receptor worked out at 23.71. Also, the IC50 on adenosine A2B receptor was 10 to 50 nM; on adenosine A2A receptor it was 100 to 500 nM; at adenosine A1 receptor it was over 500 nM; at adenosine A3 receptor, 50 to 100 nM.
Regarding `Cc1cc2nc(N[C@@H](C)c3cncc(F)c3)nc(C(=O)N3CCCC3)c2s1` [Example Z279, (S)-(2-((1-(5-Fluoropyridin-3-yl)ethyl)amino)-6-methylthieno[3,2-d]pyrimidin-4-yl)(pyrrolidin-1-yl)methanone], the Ratio on adenosine A2B receptor amounted to 86.81. Also, the IC50 on adenosine A2B receptor is under 10 nM; on adenosine A2A receptor, 50 to 100 nM; at adenosine A1 receptor, 50 to 100 nM; at adenosine A3 receptor it was 50 to 100 nM.
As for `C[C@H](Nc1nc(C(=O)N2CCC[C@@H]2C)c2sccc2n1)c1cncc(F)c1` [Example Z271, (2-(((S)-1-(5-Fluoropyridin-3-yl)ethyl)amino)thieno[3,2-d]pyrimidin-4-yl)((S)-2-methylpyrrolidin-1-yl)methanone], the Ratio at adenosine A2B receptor was 9.24. For the same compound, the 50% inhibitory concentration (IC50) on adenosine A2B receptor is 10 to 50 nM; on adenosine A2A receptor, 100 to 500 nM; against adenosine A1 receptor it was over 500 nM; against adenosine A3 receptor, over 500 nM.
